According to ChEMBL document CHEMBL1201862, “PubChem BioAssay data set” (2004):
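Cultured in 96-well plates, cells were exposed to test compound for 48 hours across five concentrations. GI50: concentration for 50% inhibition of growth.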 Active and inactive are the calls of the source. Rule as the data show it: active = GI50 up to about 1.1 µM and inactive = higher.

Legend:
Assay in all cases: inhibition of tumour cell growth, NCI panel, 48 h
SNB-19 = system: SNB-19
KM12 = system: KM12
SN12C = system: SN12C
Malme-3M = system: Malme-3M
MOLT-4 = system: MOLT-4
NCI/ADR-RES = system: NCI/ADR-RES
SF-295 = system: SF-295
BT-549 = system: BT-549
SK-MEL-28 = system: SK-MEL-28
SK-MEL-2 = system: SK-MEL-2
LOX IMVI = system: LOX IMVI
T47D = system: T47D
OVCAR-5 = system: OVCAR-5
NCI-H23 = system: NCI-H23
NCI-H522 = system: NCI-H522
OVCAR-8 = system: OVCAR-8
MDA-MB-231 = system: MDA-MB-231
UACC-62 = system: UACC-62
HCT-116 = system: HCT-116
HT-29 = system: HT-29
HL-60 = system: HL-60
A498 = system: A498
CAKI-1 = system: CAKI-1
M14 = system: M14
EKVX = system: EKVX
SR = system: SR
TK-10 = system: TK-10
OVCAR-4 = system: OVCAR-4
UACC-257 = system: UACC-257
NCI-H226 = system: NCI-H226
786-0 = system: 786-0
HCT-15 = system: HCT-15
HOP-92 = system: HOP-92
UO-31 = system: UO-31
U-251 = system: U-251
SW-620 = system: SW-620
MCF7 = system: MCF7
COLO 205 = system: COLO 205
IGROV-1 = system: IGROV-1
RPMI-8226 = system: RPMI-8226
Hs-578T = system: Hs-578T
NCI-H460 = system: NCI-H460
SF-268 = system: SF-268
ACHN = system: ACHN
PC-3 = system: PC-3
A549 = system: A549
K562 = system: K562
HCC 2998 = system: HCC 2998
HOP-62 = system: HOP-62
SK-MEL-5 = system: SK-MEL-5
SNB-75 = system: SNB-75
CCRF-CEM = system: CCRF-CEM
SF-539 = system: SF-539
MDA-MB-435 = system: MDA-MB-435
DU-145 = system: DU-145
SK-OV-3 = system: SK-OV-3
OVCAR-3 = system: OVCAR-3
MDA-N = system: MDA-N

With Cc1nc2c(N3CCCC3)nc(N3CCNCC3)nc2nc1NCc1ccccc1 the GI50 (SNB-19) was 5.66 µM (inactive), the GI50 (KM12) was 2.84 µM (inactive) and the GI50 (SN12C) was 7.29 µM (inactive). For the same compound, the GI50 (Malme-3M) was 2.04 µM (inactive), the GI50 (MOLT-4) was 2.52 µM (inactive) and the GI50 (NCI/ADR-RES) was 13 µM (inactive). The GI50 (SF-295) was 2.04 µM (inactive), the GI50 (BT-549) was 2.4 µM (inactive) and the GI50 (SK-MEL-28) was 1.95 µM (inactive). The GI50 (SK-MEL-2) was 4.98 µM (inactive), the GI50 (LOX IMVI) was 1.65 µM (inactive) and the GI50 (T47D) was 1.73 µM (inactive). The GI50 (OVCAR-5) was 13 µM (inactive), the GI50 (NCI-H23) was 8.85 µM (inactive) and the GI50 (NCI-H522) was 1.65 µM (inactive). The GI50 (OVCAR-8) was 3.37 µM (inactive), the GI50 (MDA-MB-231) was 2.95 µM (inactive) and the GI50 (UACC-62) was 2.79 µM (inactive). The GI50 (HCT-116) was 1.62 µM (inactive), the GI50 (HT-29) was 2.41 µM (inactive) and the GI50 (HL-60) was 3.61 µM (inactive). For the same compound, the GI50 (A498) was 4.79 µM (inactive), the GI50 (CAKI-1) was 3.01 µM (inactive) and the GI50 (M14) was 1.94 µM (inactive). For the same compound, the GI50 (EKVX) was 8.11 µM (inactive), the GI50 (SR) was 2.84 µM (inactive) and the GI50 (TK-10) was 4.88 µM (inactive). For the same compound, the GI50 (OVCAR-4) was 7.73 µM (inactive), the GI50 (UACC-257) was 1.94 µM (inactive) and the GI50 (NCI-H226) was 13.1 µM (inactive). For the same compound, the GI50 (786-0) was 4.9 µM (inactive), the GI50 (HCT-15) was 2.09 µM and the GI50 (HOP-92) was 2.33 µM (inactive). For the same compound, the GI50 (UO-31) was 2.41 µM (inactive), the GI50 (U-251) was 3.2 µM (inactive) and the GI50 (SW-620) was 2.36 µM (inactive). For the same compound, the GI50 (MCF7) was 2.33 µM (inactive), the GI50 (COLO 205) was 1.24 µM (inactive) and the GI50 (IGROV-1) was 3.95 µM (inactive). For the same compound, the GI50 (RPMI-8226) was 2.11 µM (inactive), the GI50 (Hs-578T) was 6.17 µM (inactive) and the GI50 (NCI-H460) was 3.56 µM (inactive). The GI50 (SF-268) was 3.85 µM (inactive), the GI50 (ACHN) was 5.12 µM (inactive) and the GI50 (PC-3) was 5.05 µM (inactive). The GI50 (A549) was 3.88 µM (inactive), the GI50 (K562) was 2.81 µM (inactive) and the GI50 (HCC 2998) was 1.53 µM (inactive). The GI50 (HOP-62) was 2.94 µM (inactive), the GI50 (SK-MEL-5) was 1.65 µM (inactive) and the GI50 (SNB-75) was 0.578 µM (active). For the same compound, the GI50 (CCRF-CEM) was 2.4 µM (inactive), the GI50 (SF-539) was 2.65 µM (inactive) and the GI50 (MDA-MB-435) was 2.24 µM (inactive). The GI50 (DU-145) was 6.52 µM (inactive), the GI50 (SK-OV-3) was 7.69 µM (inactive) and the GI50 (OVCAR-3) was 2.43 µM (inactive). For the same compound, the GI50 (MDA-N) was 1.61 µM (inactive).

COc1ccc(/C(=N/N=c2[nH]c3ccccc3[nH]2)C(=O)O)cc1 was tested, and the GI50 (SNB-19) was > 100 µM (inactive), the GI50 (KM12) was > 100 µM (inactive) and the GI50 (SN12C) was > 100 µM (inactive). The GI50 (Malme-3M) was > 100 µM (inactive), the GI50 (MOLT-4) was > 100 µM (inactive) and the GI50 (NCI/ADR-RES) was > 100 µM (inactive). The GI50 (SF-295) was > 100 µM (inactive), the GI50 (BT-549) was > 100 µM (inactive) and the GI50 (SK-MEL-28) was > 100 µM (inactive). The GI50 (SK-MEL-2) was > 100 µM (inactive), the GI50 (LOX IMVI) was > 100 µM (inactive) and the GI50 (T47D) was > 100 µM (inactive). The GI50 (OVCAR-5) was > 100 µM (inactive), the GI50 (NCI-H23) was > 100 µM (inactive) and the GI50 (NCI-H522) was > 100 µM (inactive). For the same compound, the GI50 (OVCAR-8) was > 100 µM (inactive), the GI50 (MDA-MB-231) was > 100 µM (inactive) and the GI50 (UACC-62) was > 100 µM (inactive). For the same compound, the GI50 (HCT-116) was > 100 µM (inactive), the GI50 (HT-29) was > 100 µM (inactive) and the GI50 (HL-60) was > 100 µM (inactive). For the same compound, the GI50 (A498) was > 100 µM (inactive), the GI50 (CAKI-1) was > 100 µM (inactive) and the GI50 (M14) was > 100 µM (inactive). For the same compound, the GI50 (EKVX) was > 100 µM (inactive), the GI50 (SR) was > 100 µM (inactive) and the GI50 (TK-10) was > 100 µM (inactive). The GI50 (OVCAR-4) was > 100 µM (inactive), the GI50 (UACC-257) was > 100 µM (inactive) and the GI50 (NCI-H226) was > 100 µM (inactive). For the same compound, the GI50 (786-0) was > 100 µM (inactive), the GI50 (HCT-15) was > 100 µM and the GI50 (HOP-92) was > 100 µM (inactive). For the same compound, the GI50 (UO-31) was > 100 µM (inactive), the GI50 (U-251) was > 100 µM (inactive) and the GI50 (SW-620) was > 100 µM (inactive). The GI50 (MCF7) was > 100 µM (inactive), the GI50 (COLO 205) was > 100 µM (inactive) and the GI50 (IGROV-1) was > 100 µM (inactive). The GI50 (RPMI-8226) was > 100 µM (inactive), the GI50 (Hs-578T) was > 100 µM (inactive) and the GI50 (NCI-H460) was > 100 µM (inactive). The GI50 (SF-268) was > 100 µM (inactive), the GI50 (ACHN) was > 100 µM (inactive) and the GI50 (PC-3) was > 100 µM (inactive). For the same compound, the GI50 (A549) was > 100 µM (inactive), the GI50 (K562) was > 100 µM (inactive) and the GI50 (HCC 2998) was > 100 µM (inactive). For the same compound, the GI50 (HOP-62) was > 100 µM (inactive), the GI50 (SK-MEL-5) was > 100 µM (inactive) and the GI50 (SNB-75) was > 100 µM (inactive). The GI50 (CCRF-CEM) was > 100 µM (inactive), the GI50 (SF-539) was > 100 µM (inactive) and the GI50 (MDA-MB-435) was > 100 µM (inactive). For the same compound, the GI50 (DU-145) was > 100 µM (inactive), the GI50 (SK-OV-3) was > 100 µM (inactive) and the GI50 (OVCAR-3) was > 100 µM (inactive). For the same compound, the GI50 (MDA-N) was > 100 µM (inactive).

For COc1cc2c(c(OC)c1OC)-c1ccc(=O)c(O)cc1[C@@H](NC(C)=O)CC2 [COLCHICEINE], the GI50 (SNB-19) was 25.4 µM (inactive), the GI50 (KM12) was 15 µM (inactive) and the GI50 (SN12C) was 16.8 µM (inactive). For the same compound, the GI50 (MOLT-4) was 5.42 µM (inactive), the GI50 (NCI/ADR-RES) was 6.98 µM (inactive) and the GI50 (SF-295) was 22.2 µM (inactive). The GI50 (BT-549) was 14.6 µM (inactive), the GI50 (SK-MEL-28) was 42.5 µM (inactive) and the GI50 (SK-MEL-2) was 25.5 µM (inactive). For the same compound, the GI50 (LOX IMVI) was 12.6 µM (inactive), the GI50 (T47D) was 5.51 µM (inactive) and the GI50 (OVCAR-5) was 33.5 µM (inactive). The GI50 (NCI-H23) was 10.6 µM (inactive), the GI50 (NCI-H522) was 12.2 µM (inactive) and the GI50 (OVCAR-8) was 13.3 µM (inactive). For the same compound, the GI50 (MDA-MB-231) was 15.4 µM (inactive), the GI50 (UACC-62) was 13.2 µM (inactive) and the GI50 (HCT-116) was 27.7 µM (inactive). The GI50 (HT-29) was 16.1 µM (inactive), the GI50 (HL-60) was 4.99 µM (inactive) and the GI50 (A498) was 18.4 µM (inactive). The GI50 (CAKI-1) was 12.6 µM (inactive), the GI50 (M14) was 24.7 µM (inactive) and the GI50 (EKVX) was 19.7 µM (inactive). For the same compound, the GI50 (SR) was 2.99 µM (inactive), the GI50 (TK-10) was 37.9 µM (inactive) and the GI50 (OVCAR-4) was 12.6 µM (inactive). For the same compound, the GI50 (UACC-257) was 21.2 µM (inactive), the GI50 (NCI-H226) was 19.7 µM (inactive) and the GI50 (786-0) was 23.3 µM (inactive). For the same compound, the GI50 (HCT-15) was 10.7 µM, the GI50 (HOP-92) was 20.2 µM (inactive) and the GI50 (UO-31) was 17.6 µM (inactive). The GI50 (U-251) was 15.7 µM (inactive), the GI50 (SW-620) was 26.5 µM (inactive) and the GI50 (MCF7) was 17 µM (inactive). The GI50 (COLO 205) was 19.4 µM (inactive), the GI50 (IGROV-1) was 26.3 µM (inactive) and the GI50 (RPMI-8226) was 11.1 µM (inactive). The GI50 (Hs-578T) was 21.3 µM (inactive), the GI50 (NCI-H460) was 12.3 µM (inactive) and the GI50 (SF-268) was 25.7 µM (inactive). For the same compound, the GI50 (ACHN) was 18.1 µM (inactive), the GI50 (PC-3) was 17.8 µM (inactive) and the GI50 (A549) was 27.7 µM (inactive). The GI50 (K562) was 15.6 µM (inactive), the GI50 (HCC 2998) was 15.3 µM (inactive) and the GI50 (HOP-62) was 24.9 µM (inactive). The GI50 (SK-MEL-5) was 7.66 µM (inactive), the GI50 (SNB-75) was 40.6 µM (inactive) and the GI50 (CCRF-CEM) was 11.9 µM (inactive). The GI50 (SF-539) was 19.1 µM (inactive), the GI50 (MDA-MB-435) was 18.4 µM (inactive) and the GI50 (DU-145) was 27.6 µM (inactive). For the same compound, the GI50 (SK-OV-3) was 40.5 µM (inactive), the GI50 (OVCAR-3) was 29.6 µM (inactive) and the GI50 (MDA-N) was 16.9 µM (inactive).
